The target of this assay is T1, human GSK-3β (Hs GSK-3β) (Homo sapiens, UniProt P49841).
T1 construct: gene GSK3B
Briefly: Kinase-Glo Plus luminescent kinase assay with recombinant enzyme; Michaelis-Menten and Lineweaver-Burk kinetics. It is filed as biochemical. Background: Kinase-Glo reads ATP consumption through a luciferase reaction.

We go through 1 compound from PMC9000801, “Bioactivities and Mode of Actions of Dibutyl Phthalates and Nocardamine from Streptomyces sp. H11809” (Molecules, 2022).

Molecules are shown by their SMILES.

T1 sequence (P49841 whole entry): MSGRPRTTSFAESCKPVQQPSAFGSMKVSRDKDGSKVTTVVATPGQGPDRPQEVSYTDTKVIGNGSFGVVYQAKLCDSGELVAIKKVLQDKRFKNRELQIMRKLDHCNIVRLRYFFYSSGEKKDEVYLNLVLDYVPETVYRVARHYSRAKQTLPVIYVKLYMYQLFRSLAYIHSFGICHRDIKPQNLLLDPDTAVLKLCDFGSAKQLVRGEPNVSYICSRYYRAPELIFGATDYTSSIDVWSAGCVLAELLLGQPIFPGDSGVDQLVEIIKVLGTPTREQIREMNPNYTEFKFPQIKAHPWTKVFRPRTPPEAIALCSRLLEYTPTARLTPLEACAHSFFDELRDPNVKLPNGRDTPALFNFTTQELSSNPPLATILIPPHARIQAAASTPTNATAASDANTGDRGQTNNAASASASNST

Regarding `CCCCOC(=O)c1ccccc1C(=O)OCCCC` [DBP, dibutyl phthalate], the IC50 (in general, the midpoint of a concentration-inhibition curve) was 2 µM.
